According to patent US20230060422A1, “COMBINATION TREATMENT OF LIVER DISEASES USING INTEGRIN INHIBITORS” (NOVARTIS AG, priority 2019, published 2023):
“Also recorded” adds a separate entry of the source. Like-named read-outs stand apart in the source and are kept apart here.

Assays:
[1] = test system: Patients with histologically confirmed NASH (F1-F3) or phenotypic NASH; assay: Placebo-controlled, randomized Phase 2a study of licogliflozin, 12 weeks (NCT03205150); type: in vivo, human
Description: Method: Patients with histologically confirmed NASH (F1-F3) or phenotypic NASH (BMI≥27 kg/m^2 in non-Asians or ≥23 kg/m^2 in Asians, ALT≥50 (males) or ≥35 (females) and type 2 diabetes (T2DM)) received daily oral licogliflozin at 150 mg, 30 mg or placebo in a 2:2:1 ratio for 12 weeks (NCT03205150). The primary endpoint was the effect on ALT level after 12 weeks of treatment. Secondary endpoints include improvement in body weight, liver fat content and AST, amongst others. The study size was 110 of which 77 completed (placebo (n=18); licogliflozin 30 mg (n=25) and licogliflozin 150 mg (n=34)) and are included in the interim analysis.

[2] = test system: healthy subjects, patients with T2DM, obese patients; details: cited from earlier work
CDAHFD NASH mouse model [3] = assay: 10-week CDAHFD study, comparison with CWHM12; type: in vivo; details: 4 weeks treatment in 10-week CDAHFD study
Description: (§1) CDAHFD injury is a rodent model of NASH displaying liver fat accumulation, inflammation, and fibrosis (Matsumoto 2013). Three types of studies were performed: 1) prophylactic, Compound 1 in an abbreviated 3-week CDAHFD model; 2) therapeutic, Compound 1 for 6 weeks in the 11- to 12-week CDAHFD model; and 3) Compound 1 for 4 weeks in a 10-week CDAHFD model.
Although pan-αv inhibition with CWHM12 reduced pSMAD and OHP levels, selective αvβ1 inhibition was sufficient for antifibrotic activity.

human integrin αVβ1 [4] = target: T1, human integrin αVβ1 (Homo sapiens, UniProt P05556+P06756); assay: Solid phase integrin binding assay (TGFβ1 LAP binding)
Description: (§2) Microplates were coated with recombinant human integrin αVβ1 or αVβ6 (2 μg/mL) in PBS (100 μL/well 25° C., overnight). The coating solution was removed, washed with wash buffer (0.05% Tween 20; 0.5 mM MnCl2; in 1×TBS). The plate was blocked with 200 μL/well of Block Buffer (1% BSA; 5% sucrose; 0.5 mM MnCl2; in 1×TBS) at 37° C. for 2 h. Dilutions of Compound 1 and recombinant TGFβ1 LAP (0.67 μg/mL) in binding buffer (0.05% BSA; 2.5% sucrose; 0.5 mM MnCl2; in 1×TBS) were added. The plate was incubated for 2 hours at 25° C., washed, and incubated for 1 hour with Biotin-Anti-hLAP. Bound antibody was detected by peroxidase-conjugated streptavidin. The IC50 values for the testing compound were calculated by a four-parameter logistic regression.

human integrin αvβ6 [5] = target: T2, human integrin αvβ6 (Homo sapiens, UniProt P06756+P18564); assay: as above
Description: as §2

[6] = test system: precision cut liver slices from cirrhotic NASH patient explants; assay: Profibrotic gene expression and fibrosis biomarkers in precision cut liver slices; type: cell-based, human; set-up: reduction of gene expression of collagen, type 1, alpha 1 (COL1A1) / reduction of the level of FBN-C in culture media / reduction of PRO-C1 in culture media / reduction of PRO-C3 in culture media / reduction of PRO-C4 in culture media: concentration or dose not given beside the values
Description: The ability of Compound 1 to inhibit the expression of profibrotic genes and decrease biomarkers of fibrosis was measured in precision cut liver slices generated using cirrhotic liver tissues from NASH patient explants and from rodent models of liver fibrosis and NASH.
Data are mean +/−standard deviation from the 5 cirrhotic NASH patients. DMSO was used as the solvent and utilized at a constant concentration (0.1%) across the different groups. […] was used as a positive control.

[7] = test system: murine CCl4 model of liver fibrosis; assay: 3-week murine CCl4 model of liver fibrosis; type: in vivo, mice; details: all doses, dosed during the final week of injury
Description: Antifibrotic activity of Compound 1 was established in an abbreviated, 3-week, murine CCl4 model of liver fibrosis. CCl4 is a hepatotoxin that when injected into mice results in liver fibrosis (Constandinou 2005). Compound 1 was dosed during the final week of injury.

CDAHFD NASH mouse model [8] = assay: Prophylactic abbreviated 3-week CDAHFD NASH model; type: in vivo; details: high dose
Description: as §1

CDAHFD NASH mouse model [9] = assay: Therapeutic 11- to 12-week CDAHFD injury studies; type: in vivo
Description: as §1
Compound 1 was tested therapeutically in 11- to 12-week CDAHFD injury studies at medium, high and highest doses across 3 independent studies.

[10] = test system: healthy male and female participants; assay: First-in-human single and multiple ascending dose study; type: in vivo; details: single and multiple (7 days) ascending doses, thus far
Description: Part A of the study was a first-in-human, randomized, double-blind, placebo-controlled, parallel-group, single ascending dose study of the safety, tolerability, and PK of Compound 1 in a maximum of […] healthy male and female (non-childbearing potential) participants. Forty participants will be enrolled in up to 5 sequential cohorts.
Part B of the study is on-going and was initiated after the first 2 cohorts in Part A of the study had been completed. The doses in Part B were determined from Part A of the study and were not higher than the highest dose that was administered in Part A of the study.
Part B of the study is a randomized, double-blind, placebo-controlled, parallel-group, multiple ascending dose study of the PK, PD, safety, and tolerability of Compound 1 administered for 7 days in a maximum of 40 healthy male and female (non-childbearing potential) participants.

human integrin αVβ1 [11] = target: T1, human integrin αVβ1; assay: ALPHASCREEN proximity-based integrin binding assay; set-up: 6xHis (on the heterodimer); details: read-out: Proximity-Based Assy IC50, αvβ1
Description: (§3) Compound 1 was tested for αVβ1 or αVβ6 integrin biochemical potency using the ALPHASCREEN® (Perkin Elmer, Waltham, Mass.) proximity-based assay (a bead-based, non-radioactive Amplified Luminescent Proximity Homogeneous Assay) as described previously (Ullman E F et al., Luminescent oxygen channeling immunoassay: Measurement of particle binding kinetics by chemiluminescence. Proc. Natl. Acad. Sci. USA, Vol. 91, pp. 5426-5430, June 1994). To gauge the potency of inhibitors of binding to human integrin αVβ1 or αvβ6, the inhibitor compound and the integrin were incubated together with recombinant TGFβ1 LAP and biotinylated anti-LAP antibody plus acceptor and donor beads, following the manufacturer's recommendations. The donor beads were coated with streptavidin. […] All incubations occurred at room temperatures in 50 mM Tris-HCl, pH 7.5, 0.1% BSA supplemented with 1 mM each CaCl2 and MgCl2. The order of reagent addition was as follows: 1. αVβ1 or αVβ6 integrin, test inhibitor Compound 1, LAP, biotinylated anti-LAP antibody and acceptor beads were all added together. 2. After 2 hours, donor beads were added. After another 30 min incubation, samples were read.

human integrin αvβ6 [12] = target: T2, human integrin αvβ6; assay: ALPHASCREEN proximity-based integrin binding assay; set-up: 6xHis (on the heterodimer); details: read-out: Proximity-Based Assy IC50, αvβ6
Description: as §3

[13] = 30 mg, 12 weeks, interim analysis
[14] = 150 mg, 12 weeks, interim analysis
[15] = did not achieve statistical significance
[16] = two days of treatment, slices from 5 cirrhotic NASH patients
[17] = all doses (medium, high, highest), therapeutic, 3 independent studies

T2 sequence (P06756 31-992 limits assumed): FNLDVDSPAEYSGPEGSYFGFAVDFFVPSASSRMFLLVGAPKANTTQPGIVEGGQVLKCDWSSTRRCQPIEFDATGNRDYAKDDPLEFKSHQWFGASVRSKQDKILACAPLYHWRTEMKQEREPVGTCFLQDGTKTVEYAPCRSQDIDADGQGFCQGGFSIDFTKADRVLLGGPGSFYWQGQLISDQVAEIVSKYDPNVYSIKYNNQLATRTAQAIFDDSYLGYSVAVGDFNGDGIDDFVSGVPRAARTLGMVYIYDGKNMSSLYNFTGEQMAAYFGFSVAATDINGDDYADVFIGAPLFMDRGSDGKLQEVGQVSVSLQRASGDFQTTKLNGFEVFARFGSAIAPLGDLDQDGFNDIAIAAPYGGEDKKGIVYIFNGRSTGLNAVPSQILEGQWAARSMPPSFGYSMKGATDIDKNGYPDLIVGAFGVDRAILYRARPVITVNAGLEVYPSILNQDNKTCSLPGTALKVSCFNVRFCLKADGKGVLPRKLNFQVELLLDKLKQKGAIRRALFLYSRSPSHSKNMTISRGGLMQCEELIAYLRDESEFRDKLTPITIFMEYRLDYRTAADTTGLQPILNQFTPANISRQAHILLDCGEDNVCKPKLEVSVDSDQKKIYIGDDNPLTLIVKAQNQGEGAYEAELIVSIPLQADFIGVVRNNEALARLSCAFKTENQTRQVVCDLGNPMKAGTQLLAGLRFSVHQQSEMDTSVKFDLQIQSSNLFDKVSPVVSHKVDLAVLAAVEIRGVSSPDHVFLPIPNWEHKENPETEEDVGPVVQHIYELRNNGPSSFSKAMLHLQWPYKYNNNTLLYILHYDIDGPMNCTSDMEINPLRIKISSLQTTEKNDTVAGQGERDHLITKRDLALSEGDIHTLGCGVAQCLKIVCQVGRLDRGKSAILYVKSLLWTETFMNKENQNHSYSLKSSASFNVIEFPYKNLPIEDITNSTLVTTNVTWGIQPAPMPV
T2 sequence (P18564 22-707 limits assumed): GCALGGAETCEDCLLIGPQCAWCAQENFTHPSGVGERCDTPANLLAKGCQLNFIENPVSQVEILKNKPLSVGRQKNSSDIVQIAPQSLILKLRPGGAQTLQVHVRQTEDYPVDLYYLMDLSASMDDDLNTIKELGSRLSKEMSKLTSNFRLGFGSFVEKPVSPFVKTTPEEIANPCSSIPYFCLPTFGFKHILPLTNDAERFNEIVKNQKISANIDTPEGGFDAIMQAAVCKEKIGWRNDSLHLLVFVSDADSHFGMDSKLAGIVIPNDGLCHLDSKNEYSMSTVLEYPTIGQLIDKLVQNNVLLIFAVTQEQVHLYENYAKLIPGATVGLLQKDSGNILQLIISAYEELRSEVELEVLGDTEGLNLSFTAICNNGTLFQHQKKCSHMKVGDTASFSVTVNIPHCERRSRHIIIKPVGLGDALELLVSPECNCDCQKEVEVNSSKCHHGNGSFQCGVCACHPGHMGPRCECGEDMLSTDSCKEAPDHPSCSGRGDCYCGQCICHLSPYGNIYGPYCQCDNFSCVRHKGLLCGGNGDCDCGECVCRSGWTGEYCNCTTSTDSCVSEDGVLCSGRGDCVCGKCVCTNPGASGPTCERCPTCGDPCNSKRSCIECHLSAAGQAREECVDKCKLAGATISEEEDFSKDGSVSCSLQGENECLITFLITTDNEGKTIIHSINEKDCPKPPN
T1 sequence (P06756 31-992 limits assumed): as the sequence (P06756 31-992 limits assumed) above
T1 sequence (P05556 21-728 limits assumed): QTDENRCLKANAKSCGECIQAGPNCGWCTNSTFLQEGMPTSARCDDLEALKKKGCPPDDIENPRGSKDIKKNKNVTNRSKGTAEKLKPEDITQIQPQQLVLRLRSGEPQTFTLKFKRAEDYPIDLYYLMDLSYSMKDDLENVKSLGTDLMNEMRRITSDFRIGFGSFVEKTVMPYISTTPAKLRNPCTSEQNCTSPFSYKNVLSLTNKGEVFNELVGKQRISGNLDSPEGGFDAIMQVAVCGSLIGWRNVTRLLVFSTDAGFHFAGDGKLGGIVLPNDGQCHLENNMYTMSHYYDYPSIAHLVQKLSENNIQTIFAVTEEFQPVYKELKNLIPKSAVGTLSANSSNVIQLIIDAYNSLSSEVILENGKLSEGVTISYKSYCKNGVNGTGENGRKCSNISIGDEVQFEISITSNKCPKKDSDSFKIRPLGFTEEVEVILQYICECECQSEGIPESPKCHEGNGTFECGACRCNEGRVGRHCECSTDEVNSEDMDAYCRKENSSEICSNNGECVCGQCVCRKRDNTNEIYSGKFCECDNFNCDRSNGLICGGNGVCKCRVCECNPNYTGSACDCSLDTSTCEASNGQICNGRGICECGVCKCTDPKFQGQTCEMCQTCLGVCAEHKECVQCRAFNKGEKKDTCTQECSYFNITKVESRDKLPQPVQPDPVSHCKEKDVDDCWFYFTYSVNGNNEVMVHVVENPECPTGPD

CCc1ccc([C@@H]2O[C@H](CO)[C@@H](O)[C@H](O)[C@H]2O)cc1Cc1ccc2c(c1)OCCO2 [licogliflozin, (2S,3R,4R,5S,6R)-2-(3-((2,3-dihydrobenzo[b][1,4]dioxin-6-yl)methyl)-4-ethylphenyl)-6-(hydroxymethyl)tetrahydro-2H-pyran-3,4,5-triol]
Absolute reduction in liver fat [1, 13]: 2.71%
Diarrhea (most common adverse event), patients reporting [1, 13]: 40%
Placebo adjusted reduction in HbA1c (absolute change) [1, 13]: 0.81%
Relative reduction in liver fat content [1, 13]: 10%
patients achieving at least 5% absolute reduction in liver fat [1, 13]: 43.5%
proportion of patients with at least a 30% relative reduction in liver fat content [1, 13]: 39.5%
reduction in AST [1, 13]: 23%
reduction in GGT [1, 13]: 26%
placebo-adjusted reduction in GGT ([1]; 30 mg, Week 12, full analysis): 24%
placebo-adjusted reduction in serum ALT ([1]; 30 mg, Week 12, full analysis): 21%
placebo-adjusted reduction in serum AST ([1]; 30 mg, Week 12, full analysis): 21%
Absolute reduction in liver fat [1, 14]: 4.45%
Diarrhea (most common adverse event), patients reporting [1, 14]: 76.5%
Placebo adjusted reduction in HbA1c (absolute change) [1, 14]: 0.96%
Relative reduction in liver fat content [1, 14]: 22%
patients achieving at least 5% absolute reduction in liver fat [1, 14]: 63.3%
proportion of patients with at least a 30% relative reduction in liver fat content [1, 14]: 66.7%
reduction in AST [1, 14]: 30%
reduction in GGT [1, 14]: 32%
placebo-adjusted reduction in GGT ([1]; 150 mg, Week 12, full analysis): 36%
placebo-adjusted reduction in serum ALT ([1]; 150 mg, Week 12, full analysis): 32%
placebo-adjusted reduction in serum AST ([1]; 150 mg, Week 12, full analysis): 32%
safety and tolerability ([1]; 12 weeks of treatment): safe and tolerable
absolute and relative liver fat content ([1]; 12 weeks, full analysis): Dose-dependent decreases
HOMA-IR (insulin sensitivity) ([1]; Week 12, full analysis): improvements
HbA1c (glycemic control) ([1]; Week 12, full analysis): improvements
body weight compared with placebo ([1]; Week 12, full analysis): Statistically significant reductions
waist circumference compared with placebo ([1]; Week 12, full analysis): Statistically significant reductions
Placebo adjusted reduction in body weight ([1]; both doses (150 mg and 30 mg), 12 weeks, interim analysis): ~4%
weight loss in obese patients ([2]; 150 mg daily dose, 12 week treatment): ~6%
safety and tolerability ([2]; 150 mg once daily, twelve weeks, normoglycemic and dysglycemic subjects): generally safe and well tolerated
dose-limiting toxicity ([2]; 150 mg once daily, twelve weeks): diarrhea
safety and tolerability ([2]; healthy subjects and patients with T2DM): safe and tolerated
pharmacokinetic profile ([2]; human, in vivo): favorable pharmacokinetic profile
placebo-adjusted weight loss ([2]; over 2 weeks, healthy subjects and patients with T2DM): up to 3%

CC(C)(C)c1cc(Br)cc([C@H](CC(=O)O)NC(=O)CNC(=O)c2cc(O)cc(NC3=NCC(O)CN3)c2)c1 (stereo partly drawn) [CWHM12, (3S)—N-[3-hydroxy-5-[(1,4,5,6-tetrahydro-5-hydroxy-2-pyrimidinyl)amino]benzoyl] glycyl-3-[3-bromo-5-(1,1-dimethylethyl)phenyl]-β-alanine]
reduction of OHP concentrations (CDAHFD NASH mouse model [3]): 30%
reduction of pSMAD3 levels (CDAHFD NASH mouse model [3]): 61%

CC1(C(=O)N[C@@H](CCCCCCCc2ccc3c(n2)NCCC3)C(=O)O)CCOCC1 [Compound 1, (S)-2-(4-methyltetrahydro-2H-pyran-4-carboxamido)-9-(5,6,7,8-tetrahydro-1,8-naphthyridin-2-yl)nonanoic acid]
IC50 (human integrin αVβ1 [4]): < 50 nM
IC50 (human integrin αvβ6 [5]): < 50 nM
reduction of PRO-C1 in culture media [6, 15]: 34%
reduction of PRO-C3 in culture media [6, 15]: 16%
reduction of PRO-C4 in culture media [6, 15]: 15%
reduction of the level of FBN-C in culture media ([6]; significant): 26%
metalloproteinase inhibitor 1 (TIMP1) gene expression [6, 16]: reduced
reduction of gene expression of collagen, type 1, alpha 1 (COL1A1) [6, 16]: 39%
Levels of phosphorylated SMAD3 (pSMAD3)/SMAD3 in the liver [7]: significantly reduced
hepatic Col1a1, Col1a2, and Col3a1 expression [7]: significant reduction; also recorded: significantly reduced
expression of Ehhadh (CDAHFD NASH mouse model [8]; both studies): significantly elevated
gene expression of collagens (CDAHFD NASH mouse model [8]; one of the two studies): Significantly reduced
decrease of pSMAD3 levels in the liver (CDAHFD NASH mouse model [8]; prophylactic, 3-week CDAHFD): 19%
reduction of hepatic OHP concentrations (CDAHFD NASH mouse model [8]; prophylactic, both studies): ~30%
reduction of hepatic OHP (CDAHFD NASH mouse model [9]; [17]): up to 38%
reduction of pSMAD3 levels (CDAHFD NASH mouse model [9]; [17]): up to 57%
Collagen gene expression (Col1a1 and Col3a1) (CDAHFD NASH mouse model [9]; high and highest doses): significantly reduced
gene expression of profibrotic markers Ctgf, Mmp-2, and Timp1 (CDAHFD NASH mouse model [9]; high and highest doses): significantly reduced
Gene expression of Acox1 and Ehhadh (CDAHFD NASH mouse model [9]; mouse, in vivo): significantly increased
collagen area (histological analysis) (CDAHFD NASH mouse model [9]; mouse, in vivo): significant reduction
composite fibrosis score (second harmonic generation imaging): quantity and quality of the collagen fibers (CDAHFD NASH mouse model [9]; mouse, in vivo): significant reduction
reduction in OHP concentration (CDAHFD NASH mouse model [9]; separate sentence of b235, dose not stated): 24%
reduction of OHP concentrations (CDAHFD NASH mouse model [3]): 24%
reduction of pSMAD3 levels (CDAHFD NASH mouse model [3]): 40%
tolerability in healthy volunteers [10]: well tolerated
IC50 (human integrin αVβ1 [11]): 50 to 250 nM
IC50 (human integrin αvβ6 [12]): < 50 nM
